Data from publication PMC6259260, “3-Acetyloxy-2-cyano-2-(alkylaminocarbamoyl)propyl Groups as Biodegradable Protecting Groups of Nucleoside 5´-mono-Phosphates” (Molecules, 2011).
Where two headings read alike, the source gives them in different places. Marks after values point to notes of the source that are not given here.

Key:
[1] = Non-enzymatic hydrolysis (hydrolytic stability) in buffer followed by RP HPLC; type: physicochemical; details: pH 7.5, 37 °C
Method: Hydrolysis of triester 1 was studied at pH 7.5 and 37 °C by analyzing the composition of the aliquots withdrawn from the reaction mixture at appropriate time intervals by RP HPLC. The products formed were identified by spiking with authentic samples and by mass spectrometric analysis (HPLC/ESI-MS). At pH 7.5-10, hydrolysis of the first acetic ester linkages of 1 (Reaction A in Scheme 4) was first-order in hydroxide-ion concentration. […] The subsequent departure of the remnants of this protecting group by retro-aldol condensation gave diester 4 (Route C) without accumulation of the monodeacetylated triester 14 as an intermediate. […]
The reactions were carried out in sealed tubes immersed in a thermostated water bath (37.0 ± 0.1 °C). […] The hydronium ion concentration of the buffer solutions was calculated with the aid of the known pKa values of the buffer acid under the experimental conditions. […]
The enzymatic hydrolysis was carried out with Hog Liver Esterase (26 units mL^-1) in a 2-[4-(2-hydroxyethyl)piperazin-1-yl)]ethanesulfonic acid (HEPES) buffer (0.040/0.024 mol L^-1) at pH 7.5 and 37 °C. […] The composition of the samples was analyzed on an ODS Hypersil C18 column (4 × 250 mm 5 μm, flow rate 1 mL min^-1), using a mixture of acetic acid/sodium acetate buffer (0.045/0.015 mol L^-1) and MeCN, containing ammonium chloride (0.1 mol L^-1). […]

[2] = tested on: hog liver carboxyesterase (HLE); assay: HLE-triggered hydrolysis in the presence of glutathione (GSH), followed by HPLC-ESI-MS; type: in vitro ADME; details: [GSH] = 5.4 mM
Method: The hydrolytic reactions of 1 was also carried out in the presence of glutathione ([GSH] = 5.4 mM) and carboxyesterase ([HLE] = 28.0 units mL^-1) in a 2-(N-morpholino)ethanesulfonic acid (MES) buffer (0.005/0.005 mol L^-1) at pH 6.2 and 37 °C. Under these conditions, the half-live for the deacetylation of 1 was 18 h. In 2 days, the starting material was converted almost quantitatively to a mixture of acetylated and deacetylated phosphodiester 4 and 16 ([4]/[16] is 1:1). At this stage, 2-cyano-N-(2-phenyl)ethylacrylamide (17) was captured as the glutathione conjugate (18; tR = 24.3 min, Route E). Product 18 was detected by both HPLC and LC-MS analysis ([M+H]^+ = 508.8; see Figure 3). In addition, glutathione was converted to its oxidized form glutathione disulfide (GSSG; [M+H]^+ = 613.5 and tR = 9.9 min).
The reactions were carried out in sealed tubes immersed in a thermostated water bath (37.0 ± 0.1 °C). The oxonium ion concentration of the reaction solution (3.5 mL) was adjusted with glycine, 2-[4-(2-hydroxyethyl)piperazin-1-yl)]ethanesulfonic acid (HEPES) and 2-(N-morpholino)ethanesulfonic acid (MES) buffers. The ionic strength of the solutions was adjusted to 0.1 mol L^-1 with sodium chloride. The hydronium ion concentration of the buffer solutions was calculated with the aid of the known pKa values of the buffer acid under the experimental conditions. […]

[3] = tested on: hog liver carboxyesterase (HLE); assay: Hog liver carboxyesterase (HLE)-catalyzed hydrolysis/deprotection followed by HPLC; type: in vitro ADME; details: for half-life at 0.4 mmol L^-1: hog liver carboxyesterase (HLE); for level of accumulation of the intermediate, of the initial concentration of 1: during HLE (26 units mL^-1) hydrolysis of 1, pH 7.5, 37 °C
Method: The subsequent retro-aldol condensation of 14 to diester 4 ([M+H]^+ = 595.3; Reaction C) was, however, so fast that the amount of 14 remained less than 5% of the initial concentration of 1.
The reactions were carried out in sealed tubes immersed in a thermostated water bath (37.0 ± 0.1 °C). The oxonium ion concentration of the reaction solution (3.5 mL) was adjusted with glycine, 2-[4-(2-hydroxyethyl)piperazin-1-yl)]ethanesulfonic acid (HEPES) and 2-(N-morpholino)ethanesulfonic acid (MES) buffers. The ionic strength of the solutions was adjusted to 0.1 mol L^-1 with sodium chloride. The hydronium ion concentration of the buffer solutions was calculated with the aid of the known pKa values of the buffer acid under the experimental conditions. The initial substrate concentration was ca. 0.4 mmol L^-1.
The enzymatic hydrolysis was carried out with Hog Liver Esterase (26 units mL^-1) in a 2-[4-(2-hydroxyethyl)piperazin-1-yl)]ethanesulfonic acid (HEPES) buffer (0.040/0.024 mol L^-1) at pH 7.5 and 37 °C. The samples (200 μL) withdrawn at appropriate intervals were made acidic (pH 2) with 1 mol L^-1 aqueous hydrogen chloride to inactivate the enzyme and to quench the hydrolysis, cooled in an ice-bath and filtered with minisart RC 4 filters (0.45 μm). The composition of the samples was analyzed on an ODS Hypersil C18 column (4 × 250 mm 5 μm, flow rate 1 mL min^-1), using a mixture of acetic acid/sodium acetate buffer (0.045/0.015 mol L^-1) and MeCN, containing ammonium chloride (0.1 mol L^-1). A good separation of the product mixtures of 2 was obtained on using a 5 min isocratic elution with the buffer containing 2% MeCN, followed by a linear gradient (23 min) up to 40.0% MeCN. Signals were recorded on a UV-detector at a wavelength of 267 nm. The reaction products were identified by the mass spectra (LC/MS) using a mixture of water and acetonitrile containing a formic acid (0.1%) as an eluent (Gemini C18 column (2 × 150 mm 5 μm, flow rate 200 μL min^-1). The first order rate constants for the non-enzymatic hydrolysis of triester 1 were obtained by applying first-order rate-law to the diminution of the concentration of the starting material. The enzymatic deacetylations obeyed first-order kinetics at the high HLE concentrations employed.

[4] = design: method as in PMID 19462989; details: non-enzymatic, cited from earlier work; for half-life for the disappearance: pH 7.5, 25 °C
[5] = tested on: hog liver carboxyesterase (HLE); design: method as in PMID 19462989; details: cited from earlier work
[6] = HLE 26 units mL^-1, pH 7.5, 37 °C
[7] = HLE 26 units mL^-1, pH 7.5, 25 °C

CC(=O)OCC(C#N)(COP(=O)(OCC1OC(n2cc(C)c(=O)[nH]c2=O)CC1O)OCC(C#N)(COC(C)=O)C(=O)NCCc1ccccc1)C(=O)NCCc1ccccc1 (stereo not shown) [compound 1, Thymidine 5´-bis[3-acetyloxy-2-cyano-2-(2-phenylethylcarbamoyl)propyl]phosphate]
half-life at 0.4 mmol L^-1 ([1]; aqueous buffer (glycine, HEPES or MES buffers), no enzyme, read-out: half-life, hydrolysis of the first acetic ester linkage (Reaction A) (converted)): 28 h | first-order rate constant k, hydrolysis of the first acetic ester linkage (Reaction A) [1]: 7e-06 s⁻¹ | half-life at 0.4 mmol L^-1 ([2]; hog, [HLE] = 28.0 units mL^-1, MES buffer, pH 6.2, 37 °C, read-out: half-life for the deacetylation (converted)): 18 h | conversion to 5´-TMP, times as fast as 3 (comparison of half-lives of Reaction D) ([3]; HLE, pH 7.5, 37 °C): 3 times | half-life at 0.4 mmol L^-1 ([3]; pig, HLE 26 units mL^-1, pH 7.5, 37 °C, I = 0.1 mol L^-1, read-out: t1/2 Reaction A (enzymatic deacetylation of triester, disappearance of starting material)): 0.0633 h

CCOC(=O)C(COCOC(C)=O)(COP(=O)(OC[C@H]1O[C@@H](n2cc(C)c(=O)[nH]c2=O)C[C@@H]1O)OCC(COCOC(C)=O)(C(=O)OCC)C(=O)OCC)C(=O)OCC [compound 2, thymidine 5´-bis[3-acetyloxymethoxy-2,2-bis(ethoxycarbonyl)propyl]phosphate]
half-life, first of the consecutive deacetylations ([4]; pH 7.5, 37 °C): 32 h | t1/2 Reaction A [5, 6]: 0.17 min | t1/2 Reaction B [5, 6]: 0.90 min | t1/2 Reaction C [5, 6]: 10.4 min | t1/2 Reaction D [5, 6]: 3.5 h

CCOC(=O)C(COC(C)=O)(COP(=O)(OC[C@H]1O[C@@H](n2cc(C)c(=O)[nH]c2=O)C[C@@H]1O)OCC(COC(C)=O)(C(=O)OCC)C(=O)OCC)C(=O)OCC [compound 3, thymidine 5´-bis[3-acetyloxy-2,2-bis(ethoxycarbonyl)propyl]phosphate]
half-life for the disappearance [4]: 20 days | t1/2 Reaction B [5, 7]: 31^a min | t1/2 Reaction C [5, 7]: 31^a min | t1/2 Reaction A [5, 6]: 3.2 min | t1/2 Reaction D [5, 6]: 151 h

CC(=O)OCC(C#N)(COP(=O)(O)OCC1OC(n2cc(C)c(=O)[nH]c2=O)CC1O)C(=O)NCCc1ccccc1 (stereo not shown) [compound 4]
half-life at 0.4 mmol L^-1 ([3]; hog, HLE 26 units mL^-1, pH 7.5, 37 °C, read-out: half-life for the disappearance (converted)): 47 h

CCOC(=O)C(COC(C)=O)(COP(=O)(O)OC[C@H]1O[C@@H](n2cc(C)c(=O)[nH]c2=O)C[C@@H]1O)C(=O)OCC [compound 6]
half-life for the disappearance [4]: 160.4 days

CC(=O)OCC(C#N)(COP(=O)(OCC1OC(n2cc(C)c(=O)[nH]c2=O)CC1O)OCC(C#N)(CO)C(=O)NCCc1ccccc1)C(=O)NCCc1ccccc1 (stereo not shown) [compound 14]
share of deacetylation to 15 (Reaction B) in the total disappearance of 14 [3, 6]: approximately 10% | share of retro-aldol condensation to diester 4 in the overall breakdown of 14 ([3]; HLE, pH 7.5, 37 °C): 90% | level of accumulation of the intermediate, of the initial concentration of 1 [3]: less than 5%

Cc1cn(C2CC(O)C(COP(=O)(O)OCC(C#N)(CO)C(=O)NCCc3ccccc3)O2)c(=O)[nH]c1=O (stereo not shown) [compound 16]
level of accumulation of the intermediate, of the initial concentration of 1 [3]: below 5%

C=C(C#N)C(=O)NCCc1ccccc1 [compound 17, 2-cyano-N-(2-phenylethyl)acrylamide]
capture of the electrophilic by-product by glutathione ([2]; [HLE] = 28.0 units mL^-1, pH 6.2, 37 °C, detected as conjugate 18): largely trapped by glutathione
